In the NIST ThermoML archive (doi:10.1016/j.jct.2018.02.022):

Test: xn = mol fraction of the nth substance listed
Conditions: 92.3 kPa, Liquid; for viscosity: Concentric cylinders viscometry; for speed of sound: Frequency=3 MHz, Single path-length method; for mass density: Vibrating tube method

OCC(O)CO [glycerol] + O
Conditions | mass density, 303.15 K [kg/m3] | mass density, 308.15 K [kg/m3] | speed of sound, 303.15 K [m/s] | speed of sound, 308.15 K [m/s] | viscosity, 303.15 K [mPa·s] | viscosity, 308.15 K [mPa·s]
x1 = 0.011 | 1008.02 | 1006.3 | 1529.5 | 1538.8 | – | –
x1 = 0.021 | 1018.65 | 1016.83 | 1548 | 1556.4 | – | –
x1 = 0.0302 | 1027.91 | 1026.01 | 1564.3 | 1571.8 | – | –
x1 = 0.0398 | 1037.12 | 1035.13 | 1580.8 | 1587.3 | – | –
x1 = 0.0546 | 1050.34 | 1048.23 | 1604.4 | 1609.6 | – | –
x1 = 0.0651 | 1058.89 | 1056.7 | 1620.4 | 1624.6 | – | –
x1 = 0.0721 | 1064.55 | 1062.31 | 1630.6 | 1634.3 | – | –
x1 = 0.0793 | 1069.8 | 1067.51 | 1640.5 | 1643.6 | – | –
x1 = 0.0898 | 1077.46 | 1075.13 | 1654.6 | 1656.9 | – | –
x1 = 0.0998 | 1084.34 | 1081.93 | 1667.4 | 1668.9 | 2.405 | 2.102
x1 = 0.1198 | 1096.94 | 1094.42 | 1690.6 | 1690.8 | – | –
x1 = 0.1549 | 1116.57 | 1113.89 | 1726.2 | 1724.3 | 3.932 | 3.385
x1 = 0.2024 | 1138.25 | 1135.43 | 1764 | 1760.1 | – | –
x1 = 0.2534 | 1157.11 | 1154.17 | 1794.9 | 1789.3 | 8.807 | 7.44
x1 = 0.2959 | 1170.15 | 1167.15 | 1814.7 | 1808.1 | 12.34 | 10.25
x1 = 0.3504 | 1184.07 | 1181.02 | 1834.3 | 1826.7 | 18.45 | 14.92
x1 = 0.4006 | 1194.81 | 1191.72 | 1848 | 1839.7 | 26.45 | 20.87
x1 = 0.4477 | 1203.34 | 1200.23 | 1857.9 | 1849 | 36.01 | 27.91
x1 = 0.4983 | 1211.29 | 1208.14 | 1866.4 | 1857.6 | 49.18 | 37.43
x1 = 0.5471 | 1218.12 | 1214.97 | 1872.9 | 1863.4 | 65.39 | 49.12
x1 = 0.6046 | 1224.8 | 1221.64 | 1878.8 | 1869 | 91.76 | 65.97
x1 = 0.6469 | 1229.27 | 1226.11 | 1882.3 | 1872.2 | 116.57 | 85.3
x1 = 0.7006 | 1234.31 | 1231.15 | 1886 | 1875.7 | 154.03 | 111.01
x1 = 0.7465 | 1238.26 | 1235.11 | 1888.8 | 1878.4 | 196.75 | 140.28
x1 = 0.7942 | 1241.97 | 1238.83 | 1891.5 | 1880.9 | 245.24 | 172.49
x1 = 0.8497 | 1245.72 | 1242.6 | 1894.1 | 1883.6 | 314.35 | 218.85
x1 = 0.8993 | 1248.75 | 1245.64 | 1895.6 | 1884.6 | 391.29 | 270.27
x1 = 0.9196 | 1250 | 1246.89 | 1896.7 | 1885.5 | – | –
x1 = 0.9322 | 1250.72 | 1247.62 | 1896.9 | 1885.8 | – | –
x1 = 0.9462 | 1251.51 | 1248.4 | 1897.2 | 1886.3 | 477.66 | 326.69
x1 = 0.9562 | 1252.03 | 1248.93 | 1897.8 | 1886.6 | – | –
x1 = 0.9855 | 1253.69 | 1250.59 | 1898.9 | 1887.5 | – | –
x1 = 1 | 1254.48 | 1251.38 | 1899.6 | 1888.1 | 593.09 | 401.76
